The results in this text go back to ChEMBL document CHEMBL5543174, “A Nonbactericidal Anionic Antimicrobial Peptide Provides Prophylactic and Therapeutic Efficacies against Bacterial Infections in Mice by Immunomodulatory-Antithrombotic Duality” (J Med Chem, 2024).

The source made the active and inactive calls. The calls are words filed in the database; no cut-off is given here.

Assay [1] concerns Lymphocyte. Kind of assay: Immunomodulatory activity in mouse spleen derived lymphocyte assessed as increase in lymphocyte proliferation at < 200 ug/ml incubated for 24 hrs by CCK-8 assay. In kind it is functional, cell-based. To be noted: dose < 200.0 µg/ml. A general note: Tetrazolium dyes change colour on reduction, which living cells bring about.
Assay [2] concerns Staphylococcus epidermidis. The assay is described as follows: Antimicrobial activity against Staphylococcus epidermidis ATCC 12228 assessed as inhibition of microbial growth at <= 200 ug/ml incubated for 18 hrs by micro-broth dilution method. In kind it is functional, organism-based. To be noted: dose <= 200.0 µg/ml.
For assay [3], the system named is Staphylococcus aureus. The assay is described as follows: Antimicrobial activity against Staphylococcus aureus ATCC 25923 assessed as inhibition of microbial growth at <= 200 ug/ml incubated for 18 hrs by micro-broth dilution method. In kind it is functional, organism-based. To be noted: dose <= 200.0 µg/ml. A general note: Broth dilution looks for growth in wells or tubes with falling amounts of substance.

The test system of assay [4] is Staphylococcus aureus. Kind of assay: Antibacterial activity against Staphylococcus aureus ATCC 25923 infected in C57BL/6 mouse assessed as reduction in bacterial load at 10 mg/kg,ip pre-administrated 5 hrs before bacterial infection. In kind it is functional, organism-based.
Assay [5] relates to Staphylococcus aureus. The assay is described as follows: Antibacterial activity against Staphylococcus aureus ATCC 25923 infected in C57BL/6 mouse assessed as reduction in IL-1beta level in peritoneal fluid at 10 mg/kg,ip administrated 5 hrs after bacterial infection measured after 24 hrs by ELISA. In kind it is functional, organism-based. To be noted: time 19.0 hrs. Background: An ELISA detects its analyte on a solid surface through an enzyme-linked reagent.

The test system of assay [6] is Staphylococcus aureus. The assay is described as follows: Antibacterial activity against Staphylococcus aureus ATCC 25923 infected in C57BL/6 mouse assessed as reduction in TNF-alpha level in serum at 10 mg/kg,ip pre-administrated 5 hrs before bacterial infection measured after 24 hrs by ELISA. In kind it is functional, organism-based. To be noted: time 29.0 hrs.
Assay [7] concerns Staphylococcus aureus. The assay is described as follows: Antibacterial activity against Staphylococcus aureus ATCC 25923 infected in C57BL/6 mouse assessed as reduction in IL-6 level in serum at 10 mg/kg,ip pre-administrated 5 hrs before bacterial infection measured after 24 hrs by ELISA. In kind it is functional, organism-based. To be noted: time 29.0 hrs.
Assay [8] relates to Staphylococcus aureus. The assay is described as follows: Antibacterial activity against Methicillin-resistant Staphylococcus aureus infected in C57BL/6 mouse assessed as reduction in IL-6 level in serum at 10 mg/kg,ip pre-administrated 5 hrs before bacterial infection measured after 24 hrs by ELISA. In kind it is functional, organism-based. To be noted: time 29.0 hrs.
Assay [9] has as its system Staphylococcus aureus. The assay is described as follows: Antibacterial activity against Methicillin-resistant Staphylococcus aureus infected in C57BL/6 mouse assessed as reduction in IL-6 level in serum at 10 mg/kg,ip administrated 5 hrs after bacterial infection measured after 24 hrs by ELISA. In kind it is functional, organism-based. To be noted: time 19.0 hrs.
Assay [10] concerns Staphylococcus aureus. Kind of assay: Antibacterial activity against Staphylococcus aureus ATCC 25923 infected in C57BL/6 mouse assessed as reduction in inflammatory injury in lung at 10 mg/kg,ip pre-administrated 5 hrs before bacterial infection measured after 24 hrs by hematoxylin and eosin staining based analysis. In kind it is functional, organism-based. To be noted: time 29.0 hrs.

For assay [11], the system named is Escherichia coli. The assay is described as follows: Antibacterial activity against Carbapenem-resistant Escherichia coli infected in C57BL/6 mouse assessed as reduction in inflammatory injury in lung at 10 mg/kg,ip pre-administrated 5 hrs before bacterial infection measured after 24 hrs by hematoxylin and eosin staining based analysis. In kind it is functional, organism-based. To be noted: time 29.0 hrs.

The subject of assay [12] is Mus musculus. The assay is described as follows: Immunomodulatory activity in cyclophosphamide immunosuppressed C57BL/6 mouse with neutrophil depletion model assessed as increase in number of neutrophil in peritoneal lavage at 10 mg/kg,ip administration measured after 5 hrs by flow cytometry. In kind it is functional, organism-based.
The subject of assay [13] is Mus musculus. The assay is described as follows: Immunomodulatory activity in clodronate liposome immunosuppressed C57BL/6 mouse with monocyte depletion model assessed as increase in number of monocyte in peritoneal lavage at 10 mg/kg,ip administration measured after 12 hrs by flow cytometry. In kind it is functional, organism-based.
The test system of assay [14] is Neutrophil. Kind of assay: Induction of degranulation in mouse bone marrow derived neutrophil assessed as increase in MMP-9 release at 25 to 100 ug/ml incubated for 6 hrs by ELISA. In kind it is functional, cell-based. To be noted: dose 25-100 µg/ml.
The test system of assay [15] is Peritoneal macrophage cell. Kind of assay: Induction of chemotaxis in mouse Peritoneal macrophage assessed as increase in macrophage migration at 100 ug/ml preincubated with PTX for 30 mins followed by compound addition measured after 8 hrs by crystal violet staining based indirect transwell assay. In kind it is functional, cell-based. To be noted: dose 100.0 µg/ml.

Assay [16] has as its system Peritoneal macrophage. Kind of assay: Immunoregulatory activity in mouse Peritoneal macrophage assessed as change in total p38 expression at 25 to 100 ug/ml incubated for 1 hr by Western blotting analysis. In kind it is functional, cell-based. To be noted: dose 25-100 µg/ml.
Assay [17] relates to Peritoneal macrophage. The assay is described as follows: Immunoregulatory activity in mouse Peritoneal macrophage assessed as change in total JNK expression at 25 to 100 ug/ml incubated for 1 hr by Western blotting analysis. In kind it is functional, cell-based. To be noted: dose 25-100 µg/ml.
For assay [18], the system named is Peritoneal macrophage. Kind of assay: Immunoregulatory activity in mouse Peritoneal macrophage assessed as change in total p65 expression at 25 to 100 ug/ml incubated for 1 hr by Western blotting analysis. In kind it is functional, cell-based. To be noted: dose 25-100 µg/ml.
For assay [19], the system named is Mus musculus. Kind of assay: Anticoagulation activity in mouse infected with Methicillin-resistant Staphylococcus aureus assessed as increase in plasma AT-III expression at 10 mg/kg,ip administrated 5 hrs after bacterial infection measured after 24 hrs by ELISA. In kind it is functional, organism-based. To be noted: time 19.0 hrs.
The subject of assay [20] is Mus musculus. Kind of assay: Anticoagulation activity in mouse infected with Carbapenem-resistant Escherichia coli assessed as increase in plasma APC expression at 10 mg/kg,ip administrated 5 hrs after bacterial infection measured after 24 hrs by ELISA. To be noted: time 19.0 hrs. In kind it is functional, organism-based.

As for `CC[C@H](C)[C@H](NC(=O)[C@@H]1CSSC[C@H](NC(=O)[C@H](CCC(=O)O)NC(=O)[C@@H](NC(=O)[C@H](CCCCN)NC(=O)[C@H](Cc2c[nH]cn2)NC(=O)[C@@H](NC(=O)[C@H](CCCCN)NC(=O)[C@H](CCC(=O)O)NC(=O)[C@H](C)NC(=O)[C@H](CCC(=O)O)NC(=O)[C@H](CCC(=O)O)NC(=O)[C@H](CCC(=O)O)NC(=O)[C@H](C)N)[C@@H](C)O)[C@@H](C)O)C(=O)N[C@@H](CC(C)C)C(=O)N[C@@H](CCC(=O)O)C(=O)N1)C(=O)N[C@@H](Cc1ccccc1)C(=O)N[C@H](C(=O)N[C@@H](CC(C)C)C(=O)N[C@@H](CC(C)C)C(=O)N1CCC[C@H]1C(=O)N1CCC[C@@H]1C(=O)N[C@H](C)C(=O)O)[C@@H](C)O`, the result in assay [1], in assay [2], in [3], in assay [14], in assay [15] and in [16] was inactive. Moreover, the result in assay [17] and in [18] was inactive. In addition, the result in assay [4], in [5], in assay [6], in assay [7], in assay [8] and in assay [9] was Active. The outcome in assay [10], in assay [11], in [12], in assay [13], in [19] and in [20] was Active.
